Results published in ChEMBL document CHEMBL1201862, “PubChem BioAssay data set” (2004).
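Each compound was tested at five concentrations against cells in 96-well plates for 48 hours. GI50 marks 50% less growth.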 Calls of active or inactive are those of the source. No stated cut-off is given here; in the data, active = GI50 up to about 1.1 µM and inactive = higher.

Assays:
Test in all cases: DTP human tumour cell line panel, 48 h
A498 = tested on: A498
DMS-114 = tested on: DMS-114
HOP-18 = tested on: HOP-18
K562 = tested on: K562
MCF7 = tested on: MCF7
NCI-H226 = tested on: NCI-H226
NCI-H23 = tested on: NCI-H23
NCI/ADR-RES = tested on: NCI/ADR-RES
SNB-75 = tested on: SNB-75
UACC-257 = tested on: UACC-257
UACC-62 = tested on: UACC-62
DLD-1 = tested on: DLD-1
LXFL 529 = tested on: LXFL 529
MOLT-4 = tested on: MOLT-4
Malme-3M = tested on: Malme-3M
DU-145 = tested on: DU-145
MDA-MB-231 = tested on: MDA-MB-231
MDA-MB-435 = tested on: MDA-MB-435
MDA-N = tested on: MDA-N
PC-3 = tested on: PC-3

Row | SMILES | GI50 (A498) | GI50 (DMS-114) | GI50 (HOP-18) | GI50 (K562) | GI50 (MCF7) | GI50 (NCI-H226) | GI50 (NCI-H23) | GI50 (NCI/ADR-RES) | GI50 (SNB-75) | GI50 (UACC-257) | GI50 (UACC-62) | GI50 (DLD-1) | GI50 (LXFL 529) | GI50 (MOLT-4) | GI50 (Malme-3M) | GI50 (DU-145) | GI50 (MDA-MB-231) | GI50 (MDA-MB-435) | GI50 (MDA-N) | GI50 (PC-3)
1 | CC12CCC3C(CCC4=CC(O)CCC43C=O)C1(O)CCC2c1ccc(=O)oc1 (configuration not stated) | 0.00802 µM (active) | 0.0014 µM (active) | 0.0107 µM (active) | 0.05 µM (active) | 0.05 µM (active) | 0.0303 µM (active) | 0.00226 µM (active) | 0.0253 µM (active) | 0.011 µM (active) | 0.0139 µM (active) | 0.05 µM (active) | – | – | – | – | – | – | – | – | –
2 | NCCCCNCCCNC(=O)c1nc(-c2nc(CCN)sc2Cl)sc1Cl | > 100 µM (inactive) | 18.8 µM (inactive) | – | 9.35 µM (inactive) | – | > 100 µM (inactive) | 37.9 µM (inactive) | – | 72.9 µM (inactive) | > 100 µM (inactive) | > 100 µM (inactive) | 83 µM (inactive) | 3.46 µM (inactive) | > 100 µM (inactive) | 58.6 µM (inactive) | – | – | – | – | –
3 | CCCc1[nH]c(SCCCCCCCCSc2nc(-c3ccc(F)cc3)c(CCC)[nH]2)nc1-c1ccc(F)cc1 | – | 3.94 µM (inactive) | 6.41 µM (inactive) | 3.83 µM (inactive) | – | – | 4.49 µM (inactive) | – | 2.11 µM (inactive) | 12.2 µM (inactive) | 5.58 µM (inactive) | – | 7.46 µM (inactive) | 4.65 µM (inactive) | – | – | – | – | – | –
4 | Oc1ccc(-c2nc3ccc4ccccc4c3c3c2CCCC3)c(O)c1 | 51.1 µM (inactive) | – | – | > 100 µM (inactive) | 27.7 µM (inactive) | > 63 µM (inactive) | 27.9 µM (inactive) | > 100 µM (inactive) | 28.7 µM (inactive) | 10.5 µM (inactive) | 19.5 µM (inactive) | – | – | > 48.3 µM (inactive) | 19.4 µM (inactive) | 35.3 µM (inactive) | 12.9 µM (inactive) | 16.9 µM (inactive) | 17.2 µM (inactive) | 21.6 µM (inactive)
5 | CC1=N/C(=C/c2ccc3c(c2)OCO3)C(=O)O1 | > 100 µM (inactive) | > 100 µM (inactive) | > 100 µM (inactive) | > 100 µM (inactive) | – | – | > 100 µM (inactive) | – | > 100 µM (inactive) | > 100 µM (inactive) | > 100 µM (inactive) | – | > 100 µM (inactive) | > 100 µM (inactive) | > 100 µM (inactive) | – | – | – | – | –
6 | CC(=O)NC(CCCNC(=O)N(C)N=O)C(=O)NCc1ccccc1 (configuration not stated) | > 100 µM (inactive) | > 100 µM (inactive) | – | > 100 µM (inactive) | – | > 100 µM (inactive) | > 100 µM (inactive) | – | 52.1 µM (inactive) | > 100 µM (inactive) | > 100 µM (inactive) | > 100 µM (inactive) | > 100 µM (inactive) | > 100 µM (inactive) | > 100 µM (inactive) | – | – | – | – | –
7 | C[C@]12CCC(=O)C=C1CC[C@@H]1C2CC[C@]2(C)NC(=O)C(C#N)CC12 (some centres not stated) | > 100 µM (inactive) | > 100 µM (inactive) | – | > 100 µM (inactive) | – | > 100 µM (inactive) | > 100 µM (inactive) | – | > 100 µM (inactive) | > 100 µM (inactive) | > 100 µM (inactive) | > 100 µM (inactive) | > 100 µM (inactive) | > 100 µM (inactive) | > 100 µM (inactive) | – | – | – | – | –
8 | COc1ccc2nc3c(C(=O)NCCN(C)C)cccc3cc2c1 | 1.36 µM (inactive) | 1.91 µM (inactive) | > 100 µM (inactive) | 3.07 µM (inactive) | 1.35 µM (inactive) | 1.44 µM (inactive) | 2.09 µM (inactive) | 1.41 µM (inactive) | 2.17 µM (inactive) | 2.11 µM (inactive) | 1.46 µM (inactive) | 2.16 µM (inactive) | – | 0.569 µM (active) | – | – | – | – | – | –
9 | NC(Cc1cc(I)c(O)c(I)c1)C(=O)O (configuration not stated) | > 500 µM (inactive) | 185 µM (inactive) | 466 µM (inactive) | > 500 µM (inactive) | > 394 µM (inactive) | > 500 µM (inactive) | > 287 µM (inactive) | > 316 µM (inactive) | > 249 µM (inactive) | 293 µM (inactive) | > 279 µM (inactive) | 418 µM (inactive) | – | 401 µM (inactive) | > 500 µM (inactive) | – | – | – | – | –
10 | CC(=O)OC(C)C(=O)C1c2cccc(O)c2C(=O)c2c(O)cc(C)cc21 (configuration not stated) | 1.59 µM (inactive) | 0.188 µM (active) | 1.12 µM (inactive) | 0.354 µM (active) | – | 0.319 µM (active) | 0.324 µM (active) | – | 0.52 µM (active) | 0.41 µM (active) | – | 1.75 µM (inactive) | – | 3.06 µM (inactive) | 0.56 µM (active) | – | – | – | – | –
11 | COc1ccc2c(c1)O[C@H]1c3ccc(O)cc3OC[C@@H]21 | – | – | 93.5 µM (inactive) | 30.1 µM (inactive) | – | 25.1 µM (inactive) | 26 µM (inactive) | – | 11.2 µM (inactive) | 21.8 µM (inactive) | 14.3 µM (inactive) | 34.8 µM (inactive) | 25.4 µM (inactive) | 19.8 µM (inactive) | 34.8 µM (inactive) | – | – | – | – | –
